Values joined by “and” are separate entries in the source; they are usually repeats but may differ in a detail not shown here. Equal entries are not always repeated. Where two headings read alike, the source gives them in different places.
Key:
[1] = biological target: T1, extended human kinome (kinase-like proteins) (Homo sapiens, UniProt P54886); assay: Whole cell quantitative proteomics: extended kinome hits; conditions: Accession P54886
T1 sequence (P54886 1-795): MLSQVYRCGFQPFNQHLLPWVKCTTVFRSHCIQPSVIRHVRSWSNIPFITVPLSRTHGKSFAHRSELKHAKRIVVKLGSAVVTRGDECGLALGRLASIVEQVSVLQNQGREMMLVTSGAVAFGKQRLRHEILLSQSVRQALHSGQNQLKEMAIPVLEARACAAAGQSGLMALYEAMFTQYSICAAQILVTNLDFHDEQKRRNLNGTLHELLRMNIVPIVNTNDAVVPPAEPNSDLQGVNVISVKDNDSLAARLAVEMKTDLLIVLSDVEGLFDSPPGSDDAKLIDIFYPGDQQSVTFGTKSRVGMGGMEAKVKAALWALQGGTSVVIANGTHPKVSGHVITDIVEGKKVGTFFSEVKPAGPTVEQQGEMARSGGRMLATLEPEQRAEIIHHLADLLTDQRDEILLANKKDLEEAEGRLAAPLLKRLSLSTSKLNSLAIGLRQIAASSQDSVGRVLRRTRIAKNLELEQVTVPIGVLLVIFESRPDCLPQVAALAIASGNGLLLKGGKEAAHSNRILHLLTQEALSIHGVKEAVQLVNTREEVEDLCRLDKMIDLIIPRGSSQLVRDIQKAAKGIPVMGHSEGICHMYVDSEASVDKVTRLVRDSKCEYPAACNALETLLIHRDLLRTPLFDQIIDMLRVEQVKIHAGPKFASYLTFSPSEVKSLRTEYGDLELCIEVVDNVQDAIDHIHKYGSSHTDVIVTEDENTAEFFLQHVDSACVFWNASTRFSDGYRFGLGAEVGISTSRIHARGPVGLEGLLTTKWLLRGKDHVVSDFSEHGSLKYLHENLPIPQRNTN

[2] = biological target: T2, protein kinases (human kinome) (Homo sapiens, UniProt Q9NYY8); format: cell-based; conditions: direction down
T2 sequence (Q9NYY8 1-710): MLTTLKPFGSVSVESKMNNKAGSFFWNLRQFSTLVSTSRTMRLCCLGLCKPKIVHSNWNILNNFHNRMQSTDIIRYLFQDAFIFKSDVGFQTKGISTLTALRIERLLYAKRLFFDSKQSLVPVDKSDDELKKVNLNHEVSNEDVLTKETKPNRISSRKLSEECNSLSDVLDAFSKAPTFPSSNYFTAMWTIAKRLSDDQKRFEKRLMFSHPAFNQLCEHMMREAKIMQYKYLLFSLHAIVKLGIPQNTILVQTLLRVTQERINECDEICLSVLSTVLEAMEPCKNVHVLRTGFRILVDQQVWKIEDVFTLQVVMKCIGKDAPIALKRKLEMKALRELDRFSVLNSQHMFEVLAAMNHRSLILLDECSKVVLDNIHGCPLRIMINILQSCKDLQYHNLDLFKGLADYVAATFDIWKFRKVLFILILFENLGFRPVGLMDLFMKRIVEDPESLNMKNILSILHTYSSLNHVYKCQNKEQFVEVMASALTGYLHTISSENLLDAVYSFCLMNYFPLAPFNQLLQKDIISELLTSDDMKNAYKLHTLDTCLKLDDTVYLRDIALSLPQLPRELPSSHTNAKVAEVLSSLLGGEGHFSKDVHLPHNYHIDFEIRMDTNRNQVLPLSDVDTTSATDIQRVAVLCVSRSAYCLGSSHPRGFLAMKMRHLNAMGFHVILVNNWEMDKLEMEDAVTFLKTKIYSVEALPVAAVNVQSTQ

[3] = tested on: protein kinases (human kinome); format: cell-based; conditions: for logFC RPS6KA1: RPS6KA1 (Q15418-2); for logFC of SRC: Accession P12931-2; for logFC LCK: accession P06239-3
[4] = biological target: protein kinases (human kinome) (Homo sapiens, UniProt Q9H0K1); format: cell-based; conditions: for logFC of SIK2: Accession Q9H0K1; for logFC SIK2 (Q9H0K1): direction of change down
Sequence of protein kinases (human kinome) (Homo sapiens, UniProt Q9H0K1) (Q9H0K1 whole entry): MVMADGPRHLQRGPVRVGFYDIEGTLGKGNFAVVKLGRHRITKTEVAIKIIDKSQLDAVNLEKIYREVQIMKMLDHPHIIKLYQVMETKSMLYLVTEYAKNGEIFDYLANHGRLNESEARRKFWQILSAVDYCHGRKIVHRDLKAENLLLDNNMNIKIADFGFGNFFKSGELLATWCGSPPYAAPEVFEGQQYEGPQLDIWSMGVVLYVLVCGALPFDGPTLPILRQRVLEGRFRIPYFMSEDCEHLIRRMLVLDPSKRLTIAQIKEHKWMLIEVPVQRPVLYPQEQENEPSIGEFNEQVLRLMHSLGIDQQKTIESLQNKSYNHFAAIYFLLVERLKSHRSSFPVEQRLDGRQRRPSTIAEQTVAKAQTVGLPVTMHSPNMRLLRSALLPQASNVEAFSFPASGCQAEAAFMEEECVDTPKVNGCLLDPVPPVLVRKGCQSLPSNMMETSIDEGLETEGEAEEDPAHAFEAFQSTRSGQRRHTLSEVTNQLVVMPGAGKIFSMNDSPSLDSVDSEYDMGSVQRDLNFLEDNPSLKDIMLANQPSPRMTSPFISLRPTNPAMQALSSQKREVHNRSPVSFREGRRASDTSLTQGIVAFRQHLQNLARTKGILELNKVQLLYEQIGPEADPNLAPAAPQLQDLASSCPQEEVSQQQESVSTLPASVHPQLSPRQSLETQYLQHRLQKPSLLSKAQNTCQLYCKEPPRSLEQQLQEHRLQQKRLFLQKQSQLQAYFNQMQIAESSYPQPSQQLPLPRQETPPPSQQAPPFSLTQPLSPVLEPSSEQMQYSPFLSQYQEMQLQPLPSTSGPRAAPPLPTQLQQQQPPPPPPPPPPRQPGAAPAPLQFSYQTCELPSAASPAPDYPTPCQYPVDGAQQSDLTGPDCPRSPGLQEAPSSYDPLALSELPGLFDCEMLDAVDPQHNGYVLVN

[5] = biological target: T3, protein kinases (human kinome) (Homo sapiens, UniProt O14965); format: cell-based
T3 sequence (O14965 1-403): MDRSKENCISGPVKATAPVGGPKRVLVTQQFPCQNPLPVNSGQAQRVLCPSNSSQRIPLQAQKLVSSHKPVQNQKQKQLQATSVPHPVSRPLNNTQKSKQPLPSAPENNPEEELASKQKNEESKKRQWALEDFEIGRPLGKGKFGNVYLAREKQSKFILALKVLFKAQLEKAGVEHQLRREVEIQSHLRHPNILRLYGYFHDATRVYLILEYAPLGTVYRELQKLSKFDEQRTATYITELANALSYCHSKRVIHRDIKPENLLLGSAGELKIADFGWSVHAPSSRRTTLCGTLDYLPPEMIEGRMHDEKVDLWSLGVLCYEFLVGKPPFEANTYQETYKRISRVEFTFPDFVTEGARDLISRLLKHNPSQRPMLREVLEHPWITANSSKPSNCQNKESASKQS

[6] = AURKB Q96GD4-5, experiment wp108
[7] = AURKB Q96GD4-5, experiment wp131
[8] = Accession O60566-3, experiment wp131, direction down
[9] = BUB1B (O60566-3), experiment wp131
[10] = Experiment wp131, direction down
[11] = AURKB Q96GD4-5, experiment wp137
[12] = experiment wp016, direction of change down
[13] = experiment wp131, direction of change down
[14] = experiment wp137, direction of change down

CC(=O)c1c(C)c2cnc(Nc3ccc(N4CCN(CCOCCOCCOCCNC(=O)COc5cccc6c5C(=O)N(C5CCC(=O)NC5=O)C6=O)CC4)cn3)nc2n(C2CCCC2)c1=O (stereo not drawn) [BSJ.03.123]
logFC ALDH18A1 ([1]; experiment wp084): −0.5282
logFC FASTKD2 (Q9NYY8) ([2]; Experiment wp084): −0.51
logFC ([3]; ACAD10 (Q6JQN1-5), experiment wp084): −0.5275
logFC ([3]; GK P32189-3, experiment wp084): −0.4109
logFC PDK3 ([3]; PDK3 (Q15120-2), experiment wp084): −0.5908
logFC PDK3 (Q15120-2) ([3]; experiment wp084): −0.5908
logFC HK1 ([3]; protein HK1 (P19367-3), experiment wp084, down): −0.3484

Cc1ncsc1-c1ccc([C@H](C)NC(=O)[C@@H]2C[C@@H](O)CN2C(=O)[C@@H](NC(=O)CCOCCOCCN2CCN(c3ccc(Nc4ncc(Cl)c(Nc5ccccc5S(=O)(=O)C(C)C)n4)cc3)CC2)C(C)(C)C)cc1 [FMF.06.098.1]
logFC of SIK2 ([4]; experiment wp114): −0.4985
logFC of SIK2 ([4]; experiment wp131): −0.602
logFC SIK2 (Q9H0K1) ([4]; Experiment wp114): −0.4985
logFC SIK2 (Q9H0K1) ([4]; experiment wp131): −0.602
logFC AURKA (O14965) ([5]; experiment wp114): −0.4151
logFC AURKA (O14965) ([5]; experiment wp131): −0.3471
logFC [3, 6]: −0.5246
logFC AURKB [3, 6]: −0.5246
logFC [3, 7]: −0.6726
logFC AURKB [3, 7]: −0.6726
logFC BUB1B ([3]; Accession O60566-3, experiment wp108, direction down): −0.4426
logFC BUB1B [3, 8]: −0.4232
logFC CSNK1D ([3]; Accession P48730-2, experiment wp108, direction down): −0.3812
logFC CSNK1D ([3]; Accession P48730-2, experiment wp114, direction down): −0.4039
logFC BUB1B ([3]; BUB1B (O60566-3), experiment wp108): −0.4426
logFC BUB1B [3, 9]: −0.4232
logFC ([3]; CDK9 (P50750-2) protein abundance, degrader vs DMSO, down): −0.7233 and −0.6791
logFC CSNK1D ([3]; CSNK1D P48730-2, experiment wp108): −0.3812
logFC CSNK1D ([3]; CSNK1D P48730-2, experiment wp114): −0.4039
logFC CDK9 (P50750-2) ([3]; Experiment wp108): −0.7233
logFC PRKAA1 (Q13131-2) [3, 10]: −0.3695
logFC ([3]; FER (P16591-3), experiment wp114, direction down): −0.3986
logFC of FER ([3]; FER P16591-3, experiment wp114): −0.3986
logFC FGFR1 (P11362-21) ([3]; experiment wp108, direction of change down): −0.4121
logFC ABL2 (P42684-5) ([3]; experiment wp131): −0.6443
logFC CDK9 (P50750-2) ([3]; experiment wp131): −0.6791
logFC PRKAA1 (Q13131-2) ([3]; experiment wp131): −0.3695
logFC of ABL2 (P42684-5) ([3]; experiment wp131): −0.6443
logFC FGFR1 ([3]; protein FGFR1 (P11362-21), experiment wp108, down): −0.4121

C[C@@H]1C[C@@H](O)c2ncnc(N3CCN(C(=O)[C@H](CNCCCCCCCCCCc4cccc5c4C(=O)N(C4CCC(=O)NC4=O)C5=O)c4ccc(Cl)cc4)CC3)c21 (stereo partly drawn) [INY.03.041.01]
logFC ALDH18A1 ([1]; experiment wp118): −0.376
logFC FASTKD2 (Q9NYY8) ([2]; Experiment wp118): −0.4539

CNC(=O)c1ccccc1Nc1cc(Nc2ccc(N3CCN(CCOCCOCCNC(=O)CNc4cccc5c4C(=O)N(C4CCC(=O)NC4=O)C5=O)CC3)cc2OC)ncc1C(F)(F)F (stereo not drawn) [MFH.5.103.1]
logFC ALDH18A1 ([1]; experiment wp076): −0.4191
logFC AURKA (O14965) ([5]; experiment wp076): −0.9893
logFC AURKA (O14965) ([5]; experiment wp078): −0.9893
logFC RPS6KA1 ([3]; experiment wp076): −1.583
logFC RPS6KA1 (Q15418-2) ([3]; experiment wp076): −1.583

CC(C)S(=O)(=O)c1ccccc1Nc1nc(Nc2ccc(N3CCN(CCOCCOCCNC(=O)CNc4cccc5c4C(=O)N(C4CCC(=O)NC4=O)C5=O)CC3)cc2)ncc1Cl (stereo not drawn) [TL12.186]
logFC FASTKD2 (Q9NYY8) ([2]; Experiment wp137): −0.3625
logFC of SIK2 ([4]; experiment wp131): −1.317
logFC SIK2 (Q9H0K1) ([4]; experiment wp131): −1.317
logFC AURKA (O14965) ([5]; experiment wp016): −1.758
logFC AURKA (O14965) ([5]; experiment wp131): −3.193
logFC AURKA (O14965) ([5]; experiment wp137): −2.642
logFC [3, 7]: −0.9938
logFC AURKB [3, 7]: −0.9938
logFC [3, 11]: −0.9711
logFC AURKB [3, 11]: −0.9711
logFC BUB1B [3, 8]: −0.541
logFC BUB1B ([3]; Accession O60566-3, experiment wp137, direction down): −0.5516
logFC of SRC ([3]; experiment wp016): −0.3573
logFC of SRC ([3]; experiment wp131): −0.7777
logFC of SRC ([3]; experiment wp137): −0.5738
logFC CSNK1D ([3]; Accession P48730-2, experiment wp137, direction down): −0.4721
logFC of CDK17 ([3]; Accession Q00537-2, experiment wp137): −0.7026
logFC BUB1B [3, 9]: −0.541
logFC BUB1B ([3]; BUB1B (O60566-3), experiment wp137): −0.5516
logFC CSNK1D ([3]; CSNK1D P48730-2, experiment wp137): −0.4721
logFC PRKAA1 (Q13131-2) ([3]; Experiment wp016, direction down): −0.434
logFC PRKAA1 (Q13131-2) [3, 10]: −0.5988
logFC PRKAA1 (Q13131-2) ([3]; Experiment wp137, direction down): −0.641
logFC LCK [3, 12]: −0.7129
logFC LCK [3, 13]: −1.455
logFC LCK [3, 14]: −1.373
logFC ([3]; MARK2 Q7KZI7-14, experiment wp131): −0.4868
logFC ([3]; PIP5K1A (Q99755-3), experiment wp131): −0.3436
logFC ([3]; PIP5K1A (Q99755-3), experiment wp137): −0.4526
logFC RPS6KA1 ([3]; experiment wp137): −0.4514
logFC CDK9 (P50750-2) ([3]; experiment wp016): −0.6414
logFC PRKAA1 (Q13131-2) ([3]; experiment wp016): −0.434
logFC LCK (P06239-3) [3, 12]: −0.7129
logFC ABL2 (P42684-5) ([3]; experiment wp131): −0.8023
logFC CDK9 (P50750-2) ([3]; experiment wp131): −1.451
logFC PRKAA1 (Q13131-2) ([3]; experiment wp131): −0.5988
logFC of ABL2 (P42684-5) ([3]; experiment wp131): −0.8023
logFC of MARK2 (Q7KZI7-14) ([3]; experiment wp131): −0.4868
logFC LCK (P06239-3) [3, 13]: −1.455
logFC CDK9 (P50750-2) ([3]; experiment wp137): −1.511
logFC PRKAA1 (Q13131-2) ([3]; experiment wp137): −0.641
logFC RPS6KA1 (Q15418-2) ([3]; experiment wp137): −0.4514
logFC of CDK17 (Q00537-2) ([3]; experiment wp137): −0.7026
logFC LCK (P06239-3) [3, 14]: −1.373

From US20240269139A1, “COMPOUNDS FOR TARGETED PROTEIN DEGRADATION OF KINASES” (DANA-FARBER CANCER INSTITUTE, INC., priority 2020, published 2024)
